Values joined by “and” are separate entries in the source; they are usually repeats but may differ in a detail not shown here. Identical values can stand only once.
Biological target: FIH (Homo sapiens, UniProt Q9NWT6)
Assay: FIH steady-state kinetic parameters (SPE-MS, initial hydroxylation rates)
Format: biochemical
Set-up: slope of initial reaction rate: unit not given here
Description: Final 2OG/2OG derivative concentrations are given in Supplementary Figs. 5 and 6. Reactions were monitored with a rate of ~1 sample/40 s using the same SPE-MS configuration as described above. Data were analyzed as described above and the slopes of the initial reaction rates (Supplementary Figs. 5 and 6) fitted to a Michaelis–Menten plot using non-linear regression (GraphPad Prism 5). […]
determine kinetic parameters for 2OG derivatives (continues on the following page). Maximum velocities (vapp ) and Michaelis constants (Kapp) of FIH were determined in independent triplicates for 2OG and the 2OG […]
SPE-MS as described in the Methods section. […]
acid (LAA), and 20 μM ammonium iron(II) sulfate hexahydrate (FAS, (NH4)2Fe(SO4)2·6H2O) in buffer (50 mM […]
Tris, 50 mM NaCl, pH 7.5, 20° C). […]
data are provided as a Source Data file. […]
concentrations of 2OG; (b) hydroxylation rates used to determine kinetic parameters of FIH for 2OG; (c) time […]
3-methyl-2OG (1); (d) hydroxylation rates used to determine kinetic parameters of FIH for 1; (e) time course of […]
2OG (12); (f) hydroxylation rates used to determine kinetic parameters of FIH for 12; (g) time course of the FIH- […]
(h) hydroxylation rates used to determine kinetic parameters of FIH for 14; (i) time course of the FIH-catalyzed […]
(carboxycarbonyl)cyclopentane-1-carboxylic acid (22); (j) hydroxylation rates used to determine kinetic parameters of FIH for 22.
Supplementary Figure 6. Hydroxylation rates of FIH-catalyzed CA1-20 hydroxylations used to determine kinetic parameters for 2OG derivatives (continues on the following page). Maximum velocities (vapp ) and […]
ammonium iron(II) sulfate hexahydrate (FAS, (NH4)2Fe(SO4)2·6H2O) in buffer (50 mM Tris, 50 mM NaCl, pH […]
Source data are provided as a Source […]
of 2OG; (b) hydroxylation rates used to determine kinetic parameters of FIH for 2OG; (c) time course of the FIH-catalyzed hydroxylation reaction of the CA1-20 peptide for the shown concentrations of 3-methyl-2OG (1); (d) hydroxylation rates used to determine kinetic parameters of FIH for 1; (e) time course of the FIH -catalyzed hydroxylation reaction of the CA 1-20 peptide for the shown concentrations of 4 -methyl-2OG (12); (f) hydroxylation rates used to determine kinetic parameters of FIH for 12; (g) time course of the FIH-catalyzed hydroxylation reaction of the CA1-20 peptide for the shown concentrations of 4-ethyl-2OG (14); (h) hydroxylation rates used to determine kinetic parameters of FIH for 14; (i) time course of the FIH-catalyzed hydroxylation reaction of the CA1-20 peptide for the shown concentrations of 3-(carboxycarbonyl)cyclopentane-1-carboxylic acid (22); (j) hydroxylation rates used to determine kinetic parameters of FIH for 22.

Chain of FIH (Q9NWT6 whole entry): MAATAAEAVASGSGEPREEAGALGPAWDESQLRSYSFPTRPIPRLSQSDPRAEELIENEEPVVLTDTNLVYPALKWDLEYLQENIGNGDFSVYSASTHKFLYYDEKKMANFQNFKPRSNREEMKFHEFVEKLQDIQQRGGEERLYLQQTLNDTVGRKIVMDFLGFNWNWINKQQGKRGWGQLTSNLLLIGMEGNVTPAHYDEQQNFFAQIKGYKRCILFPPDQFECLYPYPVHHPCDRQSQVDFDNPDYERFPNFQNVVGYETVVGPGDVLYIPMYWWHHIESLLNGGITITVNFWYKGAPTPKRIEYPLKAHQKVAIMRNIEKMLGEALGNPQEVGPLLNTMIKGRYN

`O=C(O)C(=O)C1CCC(C(=O)O)C1` (stereo not shown) [compound 22, 3-(carboxycarbonyl)cyclopentane-1-carboxylic acid] was tested. Which “SPE-MS determined concentration of hydroxylated HIF-1a peptide” value (“SPE-MS determined concentration” below) (4 uM compound 22, time 2.098 min) did it give?
The value was 0.04779 µM and 0.05783 µM and 0.03772 µM.

And the “SPE-MS determined concentration” value (4 uM compound 22, time 2.797 min)?
Its value is 0.05438 µM and 0.0588 µM and 0.03391 µM.

What about the “SPE-MS determined concentration” value (4 uM compound 22 as cosubstrate, time 3.49667 min, replicates 1-3) of the same molecule?
Its value is 0.05919 µM and 0.07205 µM and 0.04053 µM.

What about the “SPE-MS determined concentration” value (8 uM compound 22, time 0.699833 min) of the same molecule?
The value was 0.02809 µM and 0.04706 µM and 0.04281 µM.

And the “SPE-MS determined concentration” value (8 uM compound 22, time 2.098 min)?
Its value is 0.0572 µM and 0.06337 µM and 0.07945 µM.

And the “SPE-MS determined concentration” value (8 uM compound 22, time 2.797 min)?
The value was 0.05834 µM and 0.07508 µM and 0.08857 µM.

What about the “SPE-MS determined concentration” value (8 uM compound 22 as cosubstrate, time 3.49667 min, replicates 1-3) of the same molecule?
The value was 0.08563 µM and 0.07413 µM and 0.09575 µM.

What about the “SPE-MS determined concentration” value (8 uM compound 22 as cosubstrate, time 4.19733 min, replicates 1-3) of the same molecule?
The value was 0.0782 µM.

And the “SPE-MS determined concentration” value (16 uM compound 22, time 0.699833 min)?
Its value is 0.06076 µM and 0.05382 µM and 0.0426 µM.

And the “SPE-MS determined concentration” value (16 uM compound 22, time 2.098 min)?
The value was 0.08485 µM and 0.09545 µM and 0.07537 µM.

And the “SPE-MS determined concentration” value (16 uM compound 22, time 2.797 min)?
The value was 0.09668 µM and 0.1092 µM and 0.09109 µM.

What about the “SPE-MS determined concentration” value (16 uM compound 22 as cosubstrate, time 3.49667 min, replicates 1-3) of the same molecule?
Its value is 0.105 µM and 0.1268 µM and 0.09176 µM.

And the “SPE-MS determined concentration” value (32 uM compound 22, time 0.699833 min)?
The value was 0.06848 µM and 0.06274 µM and 0.0479 µM.

And the “SPE-MS determined concentration” value (32 uM compound 22, time 2.098 min)?
Its value is 0.1104 µM and 0.1151 µM and 0.1012 µM.

What about the “SPE-MS determined concentration” value (32 uM compound 22, time 2.797 min) of the same molecule?
The value was 0.1309 µM and 0.1405 µM and 0.1242 µM.

What about the “SPE-MS determined concentration” value (32 uM compound 22 as cosubstrate, time 3.49667 min, replicates 1-3) of the same molecule?
Its value is 0.1431 µM and 0.1593 µM and 0.14 µM.

And the “SPE-MS determined concentration” value (64 uM compound 22, time 0 min)?
The value was 0.02766 µM and 0.02 µM and 0.02798 µM.

What about the “SPE-MS determined concentration” value (64 uM compound 22, time 0.699833 min) of the same molecule?
Its value is 0.06638 µM and 0.06107 µM and 0.07538 µM.

What about the “SPE-MS determined concentration” value (64 uM compound 22, time 2.098 min) of the same molecule?
Its value is 0.1181 µM and 0.1293 µM and 0.1259 µM.

What about the “SPE-MS determined concentration” value (64 uM compound 22, time 2.797 min) of the same molecule?
The value was 0.146 µM and 0.1627 µM and 0.1536 µM.

What about the “SPE-MS determined concentration” value (64 uM compound 22 as cosubstrate, time 3.49667 min, replicates 1-3) of the same molecule?
Its value is 0.169 µM and 0.1906 µM and 0.171 µM.

And the “SPE-MS determined concentration” value (128 uM compound 22, time 0.699833 min)?
The value was 0.06651 µM and 0.09916 µM and 0.08534 µM.

And the “SPE-MS determined concentration” value (128 uM compound 22, time 2.098 min)?
Its value is 0.1375 µM and 0.1676 µM and 0.1537 µM.

What about the “SPE-MS determined concentration” value (128 uM compound 22, time 2.797 min) of the same molecule?
Its value is 0.162 µM and 0.1955 µM and 0.1789 µM.

What about the “SPE-MS determined concentration” value (128 uM compound 22 as cosubstrate, time 3.49667 min, replicates 1-3) of the same molecule?
The value was 0.1878 µM and 0.2084 µM and 0.2042 µM.

And the “SPE-MS determined concentration” value (256 uM compound 22, time 0 min)?
The value was 0.05949 µM and 0.04197 µM.

What about the “SPE-MS determined concentration” value (256 uM compound 22, time 0.699833 min) of the same molecule?
Its value is 0.1 µM and 0.09439 µM.

And the “SPE-MS determined concentration” value (256 uM compound 22, time 2.098 min)?
Its value is 0.1712 µM and 0.1647 µM.

And the “SPE-MS determined concentration” value (256 uM compound 22, time 2.797 min)?
Its value is 0.1988 µM and 0.1857 µM.

What about the “SPE-MS determined concentration” value (256 uM compound 22 as cosubstrate, time 3.49667 min, replicates 2-3 (replicate 1 empty)) of the same molecule?
The value was 0.2377 µM and 0.2176 µM.

And the “slope of initial reaction rate” value (CA1-20, 16 μM 22)?
The value was 0.001019 and 0.001398 and 0.001783.

And the “slope of initial reaction rate” value (CA1-20, 32 μM 22)?
The value was 0.002274 and 0.002243 and 0.002771.

And the “slope of initial reaction rate” value (CA1-20, 64 μM 22)?
Its value is 0.003753 and 0.003305 and 0.003867.

And the “slope of initial reaction rate” value (CA1-20, 128 μM 22)?
Its value is 0.0046 and 0.003872 and 0.004223.

And the “slope of initial reaction rate” value (CA1-20, 256 μM 22)?
The value was 0.004108 and 0.004197 and 0.004611.

And the “FIH Kmapp” value (CA1–20 substrate)?
Its value is 39 µM.

What about the “slope of initial reaction rate” value (HIF-1a788-822, 8 μM 22) of the same molecule?
Its value is 0.000249 and 0.000403 and 0.000322.

What about the “slope of initial reaction rate” value (HIF-1a788-822, 16 μM 22) of the same molecule?
The value was 0.000332 and 0.000535 and 0.000447.

What about the “slope of initial reaction rate” value (HIF-1a788-822, 32 μM 22) of the same molecule?
The value was 0.000561 and 0.000718 and 0.000685.

And the “slope of initial reaction rate” value (HIF-1a788-822, 64 μM 22)?
Its value is 0.000686 and 0.000843 and 0.000711.

And the “slope of initial reaction rate” value (HIF-1a788-822, 128 μM 22)?
Its value is 0.000874 and 0.000824 and 0.000795.

What about the “slope of initial reaction rate” value (HIF-1a788-822, 256 μM 22) of the same molecule?
The value was 0.000833 and 0.000843.

What about the “FIH Kmapp” value (HIF-1α788–822 substrate) of the same molecule?
The value was 15 µM.
